Experimental data from patent publication US20230310395A1, “TOPICAL ROFLUMILAST COMPOSITIONS AND USES THEREOF” (Sol-Gel Technologies Ltd., priority 2020, published 2023).

Experiments:
[1] = according to the roflumilast DrugBank monograph; cited from earlier work
[2] = system: psoriasis-induced xenotransplants (human skin grafted on beige-SCID mice, injected with PBMC's from psoriatic patients); experiment: Efficacy study in psoriasis-induced human skin xenotransplants on beige-SCID mice, histological evaluation; assay type: in vivo; details: topical treatment for 14 days (Day 42-56), histology at Day 56
Source text: The objective of this study was to determine the efficacy of Roflumilast as provided herein (at Examples 4 and 5) compared to the vehicle and Dexamethasone as shown at the Table 3. The evaluation was based on histology analysis following application of the respective test formulations.
The efficacy study has been conducted on female mice. The total duration of the experiment was 8 weeks, upon receiving of the human skin. Normal skin from healthy volunteers were obtained for grafting. Healthy human abdominal skin pieces with a width of 0.4 mm and surface area of 1.5×1.5 cm were provided. The skin sample was preserved in isotonic saline solution and transplanted within 6-12 hours after skin donation. In addition, blood samples were collected from psoriatic patients having classic plaque psoriasis and not undergoing any treatment. 20 mL blood samples were taken from both males and females psoriatic patients (from psoriatic patients having classic plaque psoriasis and not undergoing any treatment), and peripheral blood mononuclear cells (PBMC) were separated immediately after blood withdrawal.
Mice: Beige-severe combined immunodeficient mice C.B-17/IcrHsdscid-bg (beige-SCID) mice (weight ˜25 g) were included in this study. Mice were monitored twice a week for vital signs such as weight, food intake, coat, eyes, anal genital areas, discharge/soiling, behavior and criteria related to skin transplantation. Normal healthy human donor skin were transplanted onto the beige-SCID mice as previously described (See Keren A. et al., Novel nanosome delivery system combined with siRNA targeting the antimicrobial gene DFB4: a new approach for psoriasis management? Exp Dermatol. 2014; 23:464-465; Bracke S. et al., Targeted silencing of DEFB4 in a bioengineered skin-humanized mouse model for psoriasis: development of siRNA SECosome-based novel therapies. Exp Dermatol. 2014 ;23:199-201; Zaretsky M. et al., Directed evolution of a soluble human IL-17A receptor for the inhibition of psoriasis plaque formation in a mouse model. Chem Biol. 2013 21; 20:202-2; Gilhar A. et al., The beneficial effect of blocking Kv1.3 in the psoriasiform SCID mouse model. J Invest Dermatol. 2011;131:118 124; Keren A. et al., Innate lymphoid cells 3 induce psoriasis in xenotransplanted healthy human skin. J Allergy Clin Immunol. 2018;142:305-308.e6.).
British Journal of Pharmacology 2010; 159:842-855).
Four weeks following the engraftment, each mouse was injected (intradermally) with 1×10^7 IL-2 enriched allogeneic PBMC's from psoriatic patients (1×10^7 cells injected/mouse). Cells from different psoriasis patients were equally distributed between treatment groups. Each patient was represented in each treatment group.
Fourteen days following cells injections, the mice were divided into treatment groups (Table 4, see below) and treated according to the timeline indicated below (see Scheme 1). Each transplant was equally topically treated (50 μg) by using a sterile spatula.
Dexamethasone (D2915, Sigma): was freshly prepared for each administration by dilution in saline to final concentration (50 mg/ml). Dexamethasone serves as a positive control and was administered topically twice daily for 14 days following cells injections (at Day 42 following human skin transplantation) until the end of the study (Day 56).
The vehicle was administered topically (50 μg) once daily for 14 days as well.
On Day 56, the entire skin graft was excised and placed in 10% formaldehyde in saline overnight. Then, the specimens were placed in 70% ethanol and embedded and stained according to the standard Hematoxylin/Eosin protocol.
Skin graft histological assessment was performed (according to the psoriatic criteria including epidermal thickness) using light microscopy, and two observers blindly performed the evaluations. Epidermal thickness was determined using an ocular micrometer at a minimum of 50 points along the epidermis selected to represent points of maximal and minimal thickness. […]

[3] = number of grafts/mice out of 10

| SMILES | calculated water solubility [1] [µg/mL] | Complete Recovery [2, 3] | Partial Recovery [2, 3] | Psoriatic Features [2, 3] | Complete Recovery (%) ([2]; percent of grafts/mice) | Partial Recovery (%) ([2]; percent of grafts/mice) | Psoriatic Features (%) ([2]; percent of grafts/mice) |
| --- | --- | --- | --- | --- | --- | --- | --- |
| O=C(Nc1c(Cl)cncc1Cl)c1ccc(OC(F)F)c(OCC2CC2)c1 [Roflumilast, 3-(cyclopropylmethoxy)-n-(3,5-dichloropyridin-4-yl)-4-(difluoromethoxy)-benzamide] | 6.2 |  |  |  |  |  |  |
| C[C@@H]1C[C@H]2[C@@H]3CCC4=CC(=O)C=C[C@]4(C)[C@@]3(F)[C@@H](O)C[C@]2(C)[C@@]1(O)C(=O)CO [Dexamethasone] |  | 9/10 | 1/10 | 0/10 | (90%) | (10%) | (0%) |
